The record followed here is patent US10723754B2, “2′,4′-bridged nucleosides for HCV infection” (IDENIX PHARMACEUTICALS LLC, priority 2012, dated 2020).

Series [1] addresses T1, HCV genotype 1b NS5B protein containing the S282T mutation (Hepatitis C virus genotype 1b, UniProt Q9WMX2, S2701T).
T1 construct: approximately 65 kDa HCV genotype 1b NS5B protein; made in house
Nature of the series: HCV polymerase enzyme assay, S282T 1b. Format: biochemical. The text has this:
(§1) Test compounds in the form of nucleoside triphosphates were examined for inhibitory activity against purified HCV polymerase in a standard assay. Bacterial expression constructs encoding the approximately 65 kDa HCV genotype 1b NS5B protein were used to generate recombinant HCV polymerases (with a deletion of the 21 carboxy terminal amino acids). The wild-type genotype 1b protein, genotype 1b protein containing the S282T mutation, wild-type genotype 1a protein, wild-type genotype 2a protein, wild-type genotype 3a protein and wild-type genotype 4a protein were expressed and purified for use in the enzymatic activity assay.
(§2) The enzymatic activity assay measured the inhibitory effect of increasing concentrations of test compound on the incorporation of α-[^33P]-labeled nucleotide into trichloroacetic acid-precipitable material. Recombinant polymerase and synthetic RNA template were combined in reaction buffer containing ribonucleoside triphosphates, α-[^33P]-labeled nucleotide and eight concentrations of test compound in three-fold dilutions. Reactions were incubated for two hours at 30° C.
(§3) Reactions were terminated by the addition of ice-cold trichloroacetic acid and sodium pyrophosphate to promote precipitation of newly-synthesized ribonucleic acid. Precipitable material from the reactions was collected by filtration onto 96-well filter plates, washed extensively with water, and quantified by liquid scintillation.
(§4) The inhibitory activity of test compounds was determined by fitting results to dose-response curves using XLfit software.

Series [2] concerns the target T2, HCV wild-type genotype 1b NS5B protein (Hepatitis C virus genotype 1b, UniProt Q9WMX2).
T2 construct: approximately 65 kDa HCV genotype 1b NS5B protein; made in house
Put plainly: HCV polymerase enzyme assay, wild-type 1b. The series is classed as biochemical.
Source text: as §1, §2, §3, §4

The nature of series [3]: Cytotoxicity evaluation (CellTiter-Blue Cell Viability Assay). The settings on record: human. A general note: The colour change of resazurin is a common sign of viable cells or microbes.
In series [4] the test system is HCV genotype 1b replicon in Huh-7-derived cell line (Zluc). Nature of the series: HCV replicon assay (luciferase reporter). The settings on record: Hepatitis C virus, Zluc cells, 72 hours of incubation. Format: cell-based. The protocol: Huh-7-derived cell line (Zluc) that harbors an HCV genotype 1b replicon and a luciferase reporter gene was grown in Dulbecco's Modified Eagle Medium (DMEM) supplemented with 10% fetal bovine serum, 2 mM GlutaMAX, 1% MEM nonessential amino acids, 100 IU/mL penicillin, 100 μg/mL streptomycin, and 0.5 mg/mL Geneticin® (G418). For dose response testing the cells were seeded in 96-well plates at 7.5×10^3 cells per well in a volume of 50 μL, and incubated at 37° C./5% CO2. Drug solutions were made up freshly in Huh-7 media as 2× stocks. Ten additional 5-fold dilutions were prepared from these stocks in DMEM without G418. At least three hours after Zluc cells were seeded, drug treatment was initiated by adding 50 μL of drug dilutions to the plates in duplicate. Final concentrations of drug ranged from 100 μM to […]. Cells were then incubated at 37° C./5% CO2. Alternatively, compounds were tested at two concentrations (1 μM and 10 μM). […] For this, media was removed from the plates via gentle tapping. Fifty microliters of ONE-glo luciferase assay reagent was added to each well. The plates were shaken gently for 3 min at room temperature and luminescence was measured on a Victor^3 V 1420 multilabel counter (Perkin Elmer) with a 1 second read time using a 700 nm cut-off filter. The EC50 values were calculated from dose response curves from the resulting best-fit equations determined by Microsoft Excel and XLfit 4.1 software. When screening at two fixed concentrations, the results were expressed as % inhibition at 1 μM and 10 μM.
Background: Replicon systems follow genome replication, usually without infectious particles.

The next series can be described thus: in vitro. The settings on record: human.
The target in series [5] is T3, HCV polymerase wild-type genotype 1a protein (Hepatitis C virus genotype 1a, UniProt P27958).
T3 construct: used to generate recombinant HCV polymerases; made in house
T3 sequence (P27958 2421-2990): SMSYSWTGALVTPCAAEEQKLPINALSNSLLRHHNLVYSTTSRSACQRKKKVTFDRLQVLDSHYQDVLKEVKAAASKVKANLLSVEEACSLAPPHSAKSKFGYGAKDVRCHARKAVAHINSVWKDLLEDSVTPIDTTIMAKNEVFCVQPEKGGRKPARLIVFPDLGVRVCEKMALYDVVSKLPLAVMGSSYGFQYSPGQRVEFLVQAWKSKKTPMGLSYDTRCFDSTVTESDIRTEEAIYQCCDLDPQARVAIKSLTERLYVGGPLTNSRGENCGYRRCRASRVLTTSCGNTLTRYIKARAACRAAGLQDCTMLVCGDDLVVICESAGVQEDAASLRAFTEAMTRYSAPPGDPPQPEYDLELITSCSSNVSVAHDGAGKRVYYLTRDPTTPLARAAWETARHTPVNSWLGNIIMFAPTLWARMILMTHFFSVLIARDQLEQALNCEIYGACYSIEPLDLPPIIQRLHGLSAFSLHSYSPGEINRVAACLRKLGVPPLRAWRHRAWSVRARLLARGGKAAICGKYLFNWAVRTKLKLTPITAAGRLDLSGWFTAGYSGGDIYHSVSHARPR
Put plainly: HCV polymerase enzyme assay, wild-type 1a. Format: biochemical.
Source text: as §1
(§5) The enzymatic activity assay measured the inhibitory effect of increasing concentrations of test compound on the incorporation of α-[^33P]-labeled nucleotide into trichloroacetic acid-precipitable material. […]
as §3, §4

The target in series [6] is T4, HCV polymerase wild-type genotype 3a protein (Hepatitis C virus genotype 3a, UniProt Q81258).
T4 construct: used to generate recombinant HCV polymerases; made in house
T4 sequence (Q81258 2431-3000): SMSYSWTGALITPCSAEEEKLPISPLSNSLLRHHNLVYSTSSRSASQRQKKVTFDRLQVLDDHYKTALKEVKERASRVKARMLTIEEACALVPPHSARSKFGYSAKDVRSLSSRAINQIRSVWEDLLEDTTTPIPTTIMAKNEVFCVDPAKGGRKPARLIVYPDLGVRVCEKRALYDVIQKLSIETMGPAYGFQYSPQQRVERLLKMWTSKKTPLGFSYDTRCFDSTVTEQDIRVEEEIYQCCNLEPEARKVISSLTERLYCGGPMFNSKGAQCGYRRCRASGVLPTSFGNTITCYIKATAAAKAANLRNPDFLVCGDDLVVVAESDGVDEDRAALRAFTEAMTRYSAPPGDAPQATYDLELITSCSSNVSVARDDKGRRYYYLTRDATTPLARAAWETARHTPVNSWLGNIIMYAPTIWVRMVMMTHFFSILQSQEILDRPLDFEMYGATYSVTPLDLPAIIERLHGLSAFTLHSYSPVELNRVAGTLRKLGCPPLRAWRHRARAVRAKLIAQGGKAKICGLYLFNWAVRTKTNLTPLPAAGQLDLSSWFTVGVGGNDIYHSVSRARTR
Put plainly: HCV polymerase enzyme assay, wild-type 3a. The series is classed as biochemical. The settings on record: purified recombinant polymerase; compounds as nucleoside triphosphates.
Source text: as §1, §5, §3, §4

In series [7] the target is T5, HCV polymerase wild-type genotype 4a protein (Hepatitis C virus genotype 4a, UniProt O39929).
T5 construct: used to generate recombinant HCV polymerases; made in house
T5 sequence (O39929 2418-2987): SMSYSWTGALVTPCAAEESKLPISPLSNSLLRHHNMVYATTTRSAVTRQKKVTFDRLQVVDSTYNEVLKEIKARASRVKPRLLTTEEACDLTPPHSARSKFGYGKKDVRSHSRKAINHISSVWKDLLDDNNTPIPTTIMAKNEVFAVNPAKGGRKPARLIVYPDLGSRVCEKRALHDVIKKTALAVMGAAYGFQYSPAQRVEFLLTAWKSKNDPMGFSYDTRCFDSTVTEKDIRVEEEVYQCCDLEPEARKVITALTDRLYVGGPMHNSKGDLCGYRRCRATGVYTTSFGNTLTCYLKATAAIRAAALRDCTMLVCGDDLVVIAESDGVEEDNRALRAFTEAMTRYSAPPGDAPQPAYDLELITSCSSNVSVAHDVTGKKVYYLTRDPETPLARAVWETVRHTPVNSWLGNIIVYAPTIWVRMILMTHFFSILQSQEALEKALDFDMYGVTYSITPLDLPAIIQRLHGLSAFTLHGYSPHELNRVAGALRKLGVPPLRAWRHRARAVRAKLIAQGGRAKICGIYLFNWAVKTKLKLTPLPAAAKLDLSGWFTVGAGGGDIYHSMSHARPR
Nature of the series: HCV polymerase enzyme assay, wild-type 4a. Format: biochemical. The settings on record: purified recombinant polymerase; compounds as nucleoside triphosphates.
Source text: as §1, §5, §3, §4

In series [8] the target is T6, HCV polymerase wild-type genotype 2a protein (Hepatitis C virus genotype 2a, UniProt Q99IB8).
T6 construct: used to generate recombinant HCV polymerases; made in house
Put plainly: HCV polymerase enzyme assay, wild-type 2a. Format: biochemical. The settings on record: purified recombinant polymerase; compounds as nucleoside triphosphates.
Source text: as §1, §5, §3, §4

Where [9] appears, read: purified recombinant polymerase, compounds as nucleoside triphosphates, read-out: S282T 1b IC50.

Read-outs that look alike come from different tables or passages of the source.

By IC50 is commonly meant the concentration that gives 50% inhibition. For `CC(OP(=O)(O)OP(=O)(O)OP(=O)(O)O)C12COC(C(n3cnc4c(=O)[nH]c(N)nc43)O1)C2O` (single isomer, unassigned) [Compound 102 Diastereomer 1], the IC50 in series [1] (setting [9]) is greater than 10 µM. With `CC(OP(=O)(O)OP(=O)(O)OP(=O)(O)O)C12COC(C(n3cnc4c(=O)[nH]c(N)nc43)O1)C2O` (single isomer, unassigned) [Compound 102 Diastereomer 2], the IC50 in series [2] and in series [1] (setting [9]) was greater than 10 µM throughout. As to `CCOc1nc(N)nc2c1ncn2[C@@H]1O[C@@]2(COP(=O)(N[C@@H](C)C(=O)OC(C)C)Oc3ccccc3)CO[C@@H]1[C@@H]2O` (some centres unmarked) [Compound 25], the 50% inhibitory concentration (IC50) in [2] and in series [1] was 0.25 to 1 µM throughout.

What is called EC50 is the concentration needed to bring the measured effect to its halfway point. As for `[N-]=[N+]=N[C@H]1[C@H]2OC[C@]1(CO)O[C@H]2n1ccc(=O)[nH]c1=O` [Compound 33], the CC50 at 72 h in series [3] is greater than 50 µM. In [4], the EC50 was greater than 10 µM.

With `CC(=O)N[C@H]1[C@H]2OC[C@]1(CO)O[C@H]2n1ccc(=O)[nH]c1=O` [Compound 35], in series [3], the CC50 at 72 h is greater than 50 µM. The EC50 in series [4] was greater than 10 µM.

`CS(=O)(=O)N[C@H]1[C@H]2OC[C@]1(CO)O[C@H]2n1ccc(=O)[nH]c1=O` [Compound 36] showed a CC50 at 72 h in series [3] greater than 50 µM. Besides, in series [4], the EC50 was greater than 10 µM. The corresponding values for `COC(=O)N[C@H]1[C@H]2OC[C@]1(CO)O[C@H]2n1ccc(=O)[nH]c1=O` [Compound 37] are greater than 50 µM and greater than 10 µM.

For `Nc1nc2c(ncn2[C@@H]2O[C@@]3(CO)CN[C@@H]2[C@@H]3O)c(=O)[nH]1` [Compound 38], in the series “in vitro”, the CC50 at 72 h was greater than 50 µM. In addition, the EC50 in [4] was greater than 10 µM. For the compound `Nc1ncnc2c1ncn2[C@@H]1O[C@@]2(COP(=O)(O)OP(=O)(O)OP(=O)(O)O)CO[C@@H]1[C@@H]2O` [Compound 101], the IC50 in series [2] and in [1] (setting [9]) was greater than 10 µM throughout. As to `Nc1nc2c(ncn2[C@@H]2O[C@@]3(COP(=O)(O)OP(=O)(O)OP(=O)(O)O)CO[C@@H]2[C@@H]3O)c(=O)[nH]1` [Compound 103], the IC50 is 0.25 to 1 µM in series [2]; 0.25 to 1 µM in series [5]; less than 0.25 µM in series [6]; 0.25 to 1 µM in series [1] (setting [9]); 0.25 to 1 µM in series [7]; 0.25 to 1 µM in [8]. On to `C[C@H](OP(=O)(O)OP(=O)(O)OP(=O)(O)O)[C@@]12CO[C@@H]([C@H](n3ccc(=O)[nH]c3=O)O1)[C@@H]2O` [Compound 104a], for which the IC50 in series [2] and in series [1] (setting [9]) was greater than 10 µM throughout. Consider `C[C@@H](OP(=O)(O)OP(=O)(O)OP(=O)(O)O)[C@@]12CO[C@@H]([C@H](n3ccc(=O)[nH]c3=O)O1)[C@@H]2O` [Compound 104b], for which the IC50 in series [2] and in series [1] (setting [9]) was greater than 10 µM in each case. As for `C[C@]12OC[C@](COP(=O)(O)OP(=O)(O)OP(=O)(O)O)(O[C@H]1n1cnc3c(=O)[nH]c(N)nc31)[C@H]2O` [Compound 106], the results for the IC50 in [2] and in [1] (setting [9]) were less than 0.25 µM and 0.25 to 1 µM, respectively.

With `Nc1ccn([C@@H]2O[C@@]3(COP(=O)(O)OP(=O)(O)OP(=O)(O)O)CO[C@@H]2[C@@H]3O)c(=O)n1` [Compound 107], the IC50 in series [2] and in series [1] (setting [9]) was 1 to 10 µM each time. Consider `O=c1ccn([C@@H]2O[C@@]3(COP(=O)(O)OP(=O)(O)OP(=O)(O)O)CO[C@@H]2[C@@H]3O)c(=O)[nH]1` [Compound 108], for which the IC50 was 1 to 10 µM in [2] and greater than 10 µM in series [1] (setting [9]).

`[N-]=[N+]=N[C@H]1[C@H]2OC[C@]1(COP(=O)(O)OP(=O)(O)OP(=O)(O)O)O[C@H]2n1ccc(=O)[nH]c1=O` [Compound 401] showed an IC50 in [2] greater than 10 µM. Regarding `C[C@H]1O[C@H]2[C@H](n3cnc4c(=O)[nH]c(N)nc43)O[C@]1(COP(=O)(O)OP(=O)(O)OP(=O)(O)O)[C@H]2O` [Compound 426], the IC50 in series [2] was greater than 10 µM. For the compound `C[C@H]1O[C@H]2[C@H](n3ccc(=O)[nH]c3=O)O[C@]1(COP(=O)(O)OP(=O)(O)OP(=O)(O)O)[C@H]2O` [Compound 427], the IC50 in [2] is greater than 10 µM.

Compound `Nc1nc2c(ncn2[C@@H]2O[C@@]3(COP(=O)(O)OP(=O)(O)OP(=O)(O)O)CN[C@@H]2[C@@H]3O)c(=O)[nH]1` [Compound 570] gave an IC50 in series [2] greater than 10 µM.

In turn, `N[C@H]1[C@H]2OC[C@]1(COP(=O)(O)OP(=O)(O)OP(=O)(O)O)O[C@H]2n1ccc(=O)[nH]c1=O` [Compound 571] yielded an IC50 in series [2] greater than 10 µM.
